Reference: patent US5541190A, “Benzo(F)quinolinones” (priority 1995, dated 1996)

Target: T1, 5α-reductase (Homo sapiens, UniProt P18405)
T1 construct: host or cells: Hs68 human genital skin fibroblasts
T1 sequence (P18405 1-259): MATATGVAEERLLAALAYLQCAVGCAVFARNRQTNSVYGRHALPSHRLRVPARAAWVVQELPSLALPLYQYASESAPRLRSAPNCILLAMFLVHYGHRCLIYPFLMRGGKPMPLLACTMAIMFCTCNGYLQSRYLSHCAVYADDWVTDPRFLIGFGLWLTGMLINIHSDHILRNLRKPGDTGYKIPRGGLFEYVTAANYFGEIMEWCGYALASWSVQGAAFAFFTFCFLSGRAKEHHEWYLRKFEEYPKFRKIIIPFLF
Experiment: Inhibition of 5α-reductase activity (testosterone to 5α-dihydrotestosterone conversion) in Hs68 human genital skin fibroblasts
Type: cell-based
Conditions: 0.316 μM test compound, 12 μM testosterone substrate, four hours
Procedure: Cell Culture:5α-Reductase activity was measured using Hs68 human genital skin fibroblasts which were originally purchased from the American Type Culture Collection (Rockville, Md.). The cells were grown in Dulbecco's Modified Eagle's Medium (DMEM) plus 10% stripped fetal bovine serum which was supplemented with amphotericin B (0.25 mg/ml) and gentamicin (25.0 mg/ml) (GIBCO, Grand Island, N.Y.). The serum was stripped of endogenous steroids by incubation with dextran-coated charcoal prior to its addition to the media. The cells were maintained at 37° C. in an atmosphere of 95% air, 5% CO2 and were passaged every 7-10 days by exposure to a trypsin-EDTA solution (0.025% trypsin, 0.265 mM EDTA). Prior to the assay the Hs68 cells were harvested and plated in Falcon 6-well plates (Becton Dickinson Labware, Lincoln Park, N.J.) at a density of 6×10^4 cells per well. The cells were allowed to grow for 4-5 days or until they reached approximately 80% confluence.
Assay Method I:The substrate was prepared by dissolving unlabeled testosterone (Sigma Chemical Co., St. Louis, Mo.) in absolute ethanol followed by the addition of [7-^3 H (N)]-testosterone (23.3 Ci/mmole, New England Nuclear, Boston, Mass.). The steroid solution was taken to dryness under a stream of nitrogen and then reconstituted in media.
Assay Method II:The substrate used for this method was [^14 C]-testosterone (50 mCi/mmol) (New England Nuclear, Boston, Mass.). An aliquot of the substrate was taken to dryness under a stream of nitrogen. After the addition of 30 μl of ethanol, the testosterone was dissolved in an appropriate volume of media.
Sample Preparation:The test compounds were brought up in absolute ethanol in order to achieve the desired concentration. Subsequent dilutions of the test compounds with media were performed by the Biomek 1000 Automated Laboratory Workstation (Beckman Instruments, Palo Alto, Calif.). The existing media in the sample wells was aspirated and replaced with fresh media. Test compound was then added to the wells followed by the addition of 0.5 ml of substrate. The volume of the incubation mixture was maintained at 2.0 ml. The final substrate concentration was 12 μM. The concentration of the test compounds ranged from 0.001-150 μM. An additional three wells (background) containing media and substrate but no cells were also included to account for the non-enzymatic metabolism of the substrate. The plates were returned to the incubator and incubated for four hours.
At the end of the incubation the media was collected and transferred to an extraction tube containing 5 ml of toluene-ethanol (9:1), to which has been added 20-250 μg each. of unlabeled carrier steroids (estriol, estradiol, estrone, 5α-androstan-3α,17β-diol, 5α-androstan-3β,17β-diol, -androstene-3,17-dione, 5α-androstan-3,17-dione, testosterone, and 5α-dihydrotestosterone) (Steraloids, Inc., Wilton, N.H.). In the case of Assay Method I the extraction tube also contained 1,000 and 10,000 dpm of [4-^14 C]-dihydrotestosterone (50-60 mCi/mmol) and [4-^14 C]-testosterone (50 mCi/mmol) (New England Nuclear, Boston, Mass.), respectively. The [^14 C]-steroids were included as recovery standards to quantify procedural losses. A small amount of NaCl was also added to the extraction tubes to prevent foaming. The samples were vortexed for approximately 30 seconds and then centrifuged for 10 minutes at 500×g. The organic phase was collected and the samples taken to dryness, redissolved in dichloromethane-methanol (9:1) and were analyzed by thin layer chromatography using one of the methods described below.
Chromatography Method I (two-dimensional):The extracted samples were appled to silica gel 60F254, 0.25 mm thick, thin layer chromatography plates (EM Science, Cincinnati, Ohio). The plates were developed in the first dimension with a solvent system containing dichloromethaneethyl acetate-methanol-acetic acid (160:38:1.5:0.5, Mallinckrodt Inc., Paris, Ky.).

Structure (SMILES)	inhibition at 0.316 µM [%]
C[C@]12CCC(=O)N[C@@H]1CCc1cc(Cl)ccc12 (relative stereo) [Example 40, Trans-8-chloro-10b-methyl-1,2,3,4,4a,5,6,10-octhydrobenzo[f]-quinolin-3-one]	25.6
CN1C(=O)CC[C@H]2c3ccc(Br)cc3C(C)(C)C[C@@H]21 (relative stereo) [Example 28, trans-dl-8-bromo-4,6,6-trimethyl-1,2,3,4,4a,5,6,10b-ocathydrobenzo[f]quinolin-3-one]	78
C[C@H]1C[C@@H]2c3ccc(Cl)cc3CC[C@H]2N(C)C1=O (relative stereo) [Example 26B, trans-dl-8-chloro-2-(β-methyl)-4-methyl-1,2,3,4,4a,5,6,10b-octahydrobenzo[f]quinolin-3-one]	76.4
C[C@@H]1C[C@@H]2c3ccc(Cl)cc3CC[C@H]2N(C)C1=O (relative stereo) [Example 26A, trans-dl-8-chloro-2-(α-methyl)-4-methyl-1,2,3,4,4a,5,6,10b-octahydrobenzo[f]quinolin-3-one]	82.6
CN1C(=O)CC[C@H]2c3ccc(Br)cc3C(C)(C)C[C@H]21 (relative stereo) [Example 29, cis-dl-8-bromo-4,6,6-trimethyl-1,2,3,4,4a,5,6,10b-octahydrobenzo[f]quinolin-3-one]	56.1
COc1ccc(CN2C(=O)CC[C@@]3(C)c4ccc(Cl)cc4CC[C@H]23)cc1 (relative stereo) [Example 44, Trans-4-(4-methoxybenzyl)-8-chloro-10b-methyl-1,2,3,4,4a,5,6,10b-octahydrobenzo[f]quinolin-3-one]	5.7

Same assay, conditions: 1.00 μM test compound, 12 μM testosterone substrate, four hours

Structure (SMILES)	inhibition at 1 µM [%]
CN1C(=O)CC[C@@]2(C)c3ccccc3CC[C@H]12 (relative stereo) [Example 37, trans-dl-4,10b-dimethyl-1,2,3,4,4a,5,6,10b-octahydrobenzo[f]quinolin-3-one]	40
CN1C(=O)CC[C@]2(C)c3ccc(Cl)cc3CC[C@H]12 (relative stereo) [Example 35, cis-dl-8-chloro-4,10b-dimethyl-1,2,3,4,4a,5,6,10b-octahydrobenzo[f]quinolin-3-one]	76.2
CN1C(=O)CC[C@H]2c3ccc(Cl)cc3CC[C@@H]21 (relative stereo) [Example 6, trans-dl-8-chloro-4-methyl-1,2,3,4,4a,5,6,10b-octahydrobenzo[f]quinolin-3-one]	100
CN1C(=O)CC[C@H]2c3ccccc3CC[C@H]21 (relative stereo) [Example 13, cis-dl-4-methyl-1,2,3,4,4a,5,6,10b-octahydrobenzo[f]quinolin-3-one]	32
CN1C(=O)CC[C@H]2c3ccccc3CC[C@@H]21 (relative stereo) [Example 12, trans-dl-4-methyl-1,2,3,4,4a,5,6,10b-octahydrobenzo[f]quinolin-3-one]	78.7

Same assay, conditions: 15.00 μM test compound, 12 μM testosterone substrate, four hours

Structure (SMILES)	inhibition at 15 µM [%]
O=C1CC[C@H]2c3cc([N+](=O)[O-])ccc3CC[C@@H]2N1 (relative stereo) [Example 46, trans-dl-9-nitro-1,2,3,4,4a,5,6,10b-octahydrobenzo[f]quinolin-3-one]	69.9
C[C@]12CCC(=O)N[C@H]1CCc1cc(Cl)ccc12 (relative stereo) [Example 41, cis-8-chloro-10b-methyl-1,2,3,4,4a,5,6,10-octahydrobenzo[f]quinolin-3-one]	58.4
